These results are taken from US20240101559A1, “TRICYCLIC KINASE INHIBITORS AND USES THEREOF” (DANA-FARBER CANCER INSTITUTE, INC., priority 2019, published 2024).

One data set concerns the target BRAF(V600E) (Homo sapiens (Human), UniProt P15056, V600E). In words: KINOMEscan kinase selectivity profiling. Conditions: read-out: Ambit KINOMEscan (percent control %). The format is binding. The text has this:
(§1) Example 7. In Vitro Kinase Selectivity Profiling of the Compounds of the Present Disclosure

The target of the next data set is CDK11B (Homo sapiens (Human), UniProt P21127). The data set is described as follows: KINOMEscan kinase selectivity profiling. Format: binding. Conditions: read-out: Ambit KINOMEscan (percent control %).
Excerpt: as §1

The target in the next data set is PDGFRB (Homo sapiens (Human), UniProt P09619). The data set is described as follows: KINOMEscan kinase selectivity profiling. As to conditions: read-out: Ambit KINOMEscan (percent control %). The format is binding.
Excerpt: as §1

A further data set deals with DDR2 (Homo sapiens (Human), UniProt Q16832). In words: KINOMEscan kinase selectivity profiling. Format: binding. Conditions: DDR2, 1 μM; read-out: Ambit KINOMEscan (percent control %).
Excerpt: as §1

Another data set deals with DDR1 (Homo sapiens (Human), UniProt Q08345). In words: KINOMEscan kinase selectivity profiling. Format: binding. As to conditions: DDR1, 1 μM; read-out: Ambit KINOMEscan (percent control %).
Excerpt: as §1

The target in another data set is CDC2L2 (Homo sapiens (Human), UniProt Q9UQ88). In words: KINOMEscan kinase selectivity profiling. Conditions: CDC2L2, 1 μM; read-out: Ambit KINOMEscan (percent control %). The format is binding.
Excerpt: as §1

The target in the next data set is KIT(L576P) (Homo sapiens (Human), UniProt P10721, L576P). In words: KINOMEscan kinase selectivity profiling. The format is binding. Conditions: read-out: Ambit KINOMEscan (percent control %).
Excerpt: as §1

The next data set concerns the target BRAF (Homo sapiens (Human), UniProt P15056). The data set is described as follows: KINOMEscan kinase selectivity profiling. Format: binding. As to conditions: read-out: Ambit KINOMEscan (percent control %).
Excerpt: as §1

The target of another data set is CSF1R (Homo sapiens (Human), UniProt P07333). In words: KINOMEscan kinase selectivity profiling. Format: binding. As to conditions: read-out: Ambit KINOMEscan (percent control %).
Excerpt: as §1

The next data set addresses TAOK2 (Homo sapiens (Human), UniProt Q9UL54). The data set is described as follows: KINOMEscan kinase selectivity profiling. The format is binding. Conditions: TAOK2, 1 μM; read-out: Ambit KINOMEscan (percent control %).
Excerpt: as §1

The next data set deals with CDK11A (Homo sapiens (Human), UniProt Q9UQ88). In words: Competition binding assay (kinase-tagged phage, qPCR). Conditions: 11 serial threefold dilutions, read-out: inhibition on CDK11A, IC50. As for the experimental part:
Compounds of the present disclosure were analyzed with a competition binding assay with three components: a kinase-tagged phage, a compound of the present disclosure, and an immobilized ligand that the test compound competes with to displace the kinase. The amount of kinase bound to the immobilized ligand is determined using quantitative PCR of the DNA tag. Kd values (nM) reported for each compound were determined using 11 serial threefold dilutions of test compound and a DMSO control.

Data set [1] in a line: Commercial microsome stability assay (half-life analysis). Format: in vitro ADME. Conditions: mouse liver microsomes; read-out: half-life in mouse liver microsomes (MLM). For orientation: Microsomes from liver hold many membrane-bound enzymes, among them those of drug oxidation.
In another data set the target is JAK2 (Homo sapiens (Human), UniProt O60674). The data set is described as follows: JAK2 Z-Lyte biochemical assay. As to conditions: commercial JAK2 Z-Lyte assay from Invitrogen. The procedure: Example 3. JAK2 Z-Lyte Biochemical Assay of the Compounds of the Present Disclosure
The JAK2 Z-Lyte biochemical assay was performed according to manufacturer's instructions (Life Technologies).

Another data set deals with CDK11/cycK. The data set is described as follows: NanoBRET assay, CDK11/cycK. The format is cell-based. Conditions: live cells, read-out: inhibition of CDK11/cycK interaction. From the text:
(§2) The NanoBRET™ assay (Promega Corporation) is a bioluminescence resonance energy transfer (BRET)-based assay that uses NanoLuc® Luciferase as the BRET energy donor and HaloTag® protein labeled with the HaloTag® NanoBRET™ 618 fluorescent Ligand as the energy acceptor to measure the interaction of two binding partners in live cells.

The next data set has as its system CDK11/CycL. In words: NanoBRET assay, CDK11/CycL. As to conditions: live cells, read-out: inhibition of CDK11/CycL interaction. The format is cell-based.
Excerpt: as §2

The test system of data set [2] is cell lines or patient-derived xenografts from patients with CRLF2-rearranged B-ALL. As to conditions: cited from earlier work.

Chain of JAK2 (O60674 whole entry): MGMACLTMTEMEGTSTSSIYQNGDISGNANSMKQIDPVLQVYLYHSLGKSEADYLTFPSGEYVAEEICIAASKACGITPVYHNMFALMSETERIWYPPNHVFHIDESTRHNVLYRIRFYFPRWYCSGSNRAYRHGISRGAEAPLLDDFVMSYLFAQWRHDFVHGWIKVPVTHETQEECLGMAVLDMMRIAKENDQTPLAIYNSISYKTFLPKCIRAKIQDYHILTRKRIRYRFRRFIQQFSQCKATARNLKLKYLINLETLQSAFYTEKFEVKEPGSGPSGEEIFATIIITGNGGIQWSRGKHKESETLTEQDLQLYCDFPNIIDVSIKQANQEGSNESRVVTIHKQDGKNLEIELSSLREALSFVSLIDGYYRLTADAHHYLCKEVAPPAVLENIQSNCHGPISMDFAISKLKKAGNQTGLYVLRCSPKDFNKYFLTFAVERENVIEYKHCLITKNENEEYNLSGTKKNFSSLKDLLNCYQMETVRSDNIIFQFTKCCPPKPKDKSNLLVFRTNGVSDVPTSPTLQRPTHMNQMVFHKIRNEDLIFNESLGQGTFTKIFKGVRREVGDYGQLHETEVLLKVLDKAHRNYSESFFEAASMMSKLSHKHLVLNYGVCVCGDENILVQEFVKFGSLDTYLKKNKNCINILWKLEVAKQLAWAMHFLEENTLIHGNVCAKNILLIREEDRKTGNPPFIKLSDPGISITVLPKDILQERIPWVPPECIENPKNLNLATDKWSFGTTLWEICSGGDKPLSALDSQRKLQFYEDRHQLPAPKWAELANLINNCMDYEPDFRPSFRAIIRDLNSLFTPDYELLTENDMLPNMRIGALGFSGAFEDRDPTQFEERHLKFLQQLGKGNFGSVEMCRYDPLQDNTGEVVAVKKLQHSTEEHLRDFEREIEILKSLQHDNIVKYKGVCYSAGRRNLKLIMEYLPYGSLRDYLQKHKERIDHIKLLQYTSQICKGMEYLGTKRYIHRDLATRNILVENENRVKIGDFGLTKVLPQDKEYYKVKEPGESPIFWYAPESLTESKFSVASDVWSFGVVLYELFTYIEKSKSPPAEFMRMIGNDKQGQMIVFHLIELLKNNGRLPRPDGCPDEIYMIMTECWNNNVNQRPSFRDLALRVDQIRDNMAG
Chain of CDK11A (Q9UQ88 whole entry): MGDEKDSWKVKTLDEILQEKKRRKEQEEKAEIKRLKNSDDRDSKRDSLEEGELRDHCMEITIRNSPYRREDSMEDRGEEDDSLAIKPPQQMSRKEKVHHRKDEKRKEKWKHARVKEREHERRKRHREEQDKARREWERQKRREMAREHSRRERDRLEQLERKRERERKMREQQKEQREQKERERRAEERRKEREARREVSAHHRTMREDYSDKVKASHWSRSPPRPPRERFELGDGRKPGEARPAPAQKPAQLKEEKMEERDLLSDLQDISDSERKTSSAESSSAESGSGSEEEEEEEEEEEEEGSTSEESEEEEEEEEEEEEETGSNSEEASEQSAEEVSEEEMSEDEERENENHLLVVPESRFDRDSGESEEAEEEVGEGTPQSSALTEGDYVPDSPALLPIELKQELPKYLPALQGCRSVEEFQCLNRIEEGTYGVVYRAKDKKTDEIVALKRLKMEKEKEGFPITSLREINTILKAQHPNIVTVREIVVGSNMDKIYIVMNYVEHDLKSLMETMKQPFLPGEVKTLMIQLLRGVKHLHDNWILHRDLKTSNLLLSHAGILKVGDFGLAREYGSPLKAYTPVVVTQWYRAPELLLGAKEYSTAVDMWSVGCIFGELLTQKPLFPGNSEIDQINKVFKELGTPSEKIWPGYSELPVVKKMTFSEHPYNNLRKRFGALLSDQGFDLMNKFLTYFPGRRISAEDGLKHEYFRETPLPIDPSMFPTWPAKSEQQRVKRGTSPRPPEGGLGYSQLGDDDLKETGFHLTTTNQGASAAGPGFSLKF
Chain of CDC2L2 (Q9UQ88 whole entry): as above
Chain of BRAF(V600E) (P15056 whole entry V600E): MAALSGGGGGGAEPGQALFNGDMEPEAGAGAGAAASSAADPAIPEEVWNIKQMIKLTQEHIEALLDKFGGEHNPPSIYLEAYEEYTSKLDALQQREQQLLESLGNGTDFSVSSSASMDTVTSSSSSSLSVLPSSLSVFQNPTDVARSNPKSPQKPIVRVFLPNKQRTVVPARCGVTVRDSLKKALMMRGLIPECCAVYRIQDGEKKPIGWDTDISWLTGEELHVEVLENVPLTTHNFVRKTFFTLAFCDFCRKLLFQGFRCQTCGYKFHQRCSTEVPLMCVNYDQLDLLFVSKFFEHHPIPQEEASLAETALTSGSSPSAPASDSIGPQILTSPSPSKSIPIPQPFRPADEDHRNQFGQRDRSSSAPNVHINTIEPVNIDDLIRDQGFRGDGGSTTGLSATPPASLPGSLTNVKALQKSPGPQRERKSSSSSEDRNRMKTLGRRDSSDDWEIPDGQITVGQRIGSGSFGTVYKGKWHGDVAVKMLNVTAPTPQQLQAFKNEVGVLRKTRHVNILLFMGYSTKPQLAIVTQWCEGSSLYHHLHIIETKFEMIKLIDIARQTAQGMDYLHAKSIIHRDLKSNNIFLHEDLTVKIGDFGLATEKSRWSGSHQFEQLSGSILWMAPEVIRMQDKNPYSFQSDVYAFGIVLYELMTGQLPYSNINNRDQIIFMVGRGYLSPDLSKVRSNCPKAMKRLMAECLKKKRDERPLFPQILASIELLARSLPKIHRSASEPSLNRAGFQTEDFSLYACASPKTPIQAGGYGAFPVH
Chain of PDGFRB (P09619 33-1106): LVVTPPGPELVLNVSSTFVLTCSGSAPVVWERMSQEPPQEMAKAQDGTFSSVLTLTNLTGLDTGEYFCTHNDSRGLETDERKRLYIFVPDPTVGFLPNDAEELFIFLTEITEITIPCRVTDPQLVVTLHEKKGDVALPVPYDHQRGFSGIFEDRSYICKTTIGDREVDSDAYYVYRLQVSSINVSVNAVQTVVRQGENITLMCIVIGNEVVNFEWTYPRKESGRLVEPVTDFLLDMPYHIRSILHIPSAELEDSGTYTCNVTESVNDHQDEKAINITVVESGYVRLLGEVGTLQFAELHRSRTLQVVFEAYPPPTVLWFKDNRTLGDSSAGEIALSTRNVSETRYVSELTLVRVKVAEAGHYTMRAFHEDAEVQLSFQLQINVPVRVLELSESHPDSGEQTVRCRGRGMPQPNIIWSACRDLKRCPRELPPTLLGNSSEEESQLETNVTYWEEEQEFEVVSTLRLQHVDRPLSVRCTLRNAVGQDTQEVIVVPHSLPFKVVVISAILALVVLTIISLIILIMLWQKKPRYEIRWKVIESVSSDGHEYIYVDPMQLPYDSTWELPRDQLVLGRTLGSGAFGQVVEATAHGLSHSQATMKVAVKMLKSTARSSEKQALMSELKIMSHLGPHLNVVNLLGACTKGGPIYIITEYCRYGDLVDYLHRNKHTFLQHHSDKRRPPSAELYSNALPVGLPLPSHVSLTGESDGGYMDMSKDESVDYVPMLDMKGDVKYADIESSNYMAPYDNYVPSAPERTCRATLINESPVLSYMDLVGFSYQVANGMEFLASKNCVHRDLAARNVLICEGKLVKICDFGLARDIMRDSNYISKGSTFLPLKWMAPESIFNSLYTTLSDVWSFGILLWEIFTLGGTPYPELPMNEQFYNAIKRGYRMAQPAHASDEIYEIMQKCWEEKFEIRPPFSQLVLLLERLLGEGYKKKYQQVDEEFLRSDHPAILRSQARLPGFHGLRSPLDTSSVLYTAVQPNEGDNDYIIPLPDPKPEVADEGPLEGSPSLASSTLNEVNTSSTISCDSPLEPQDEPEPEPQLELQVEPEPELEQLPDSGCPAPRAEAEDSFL
Chain of DDR1 (Q08345 19-913): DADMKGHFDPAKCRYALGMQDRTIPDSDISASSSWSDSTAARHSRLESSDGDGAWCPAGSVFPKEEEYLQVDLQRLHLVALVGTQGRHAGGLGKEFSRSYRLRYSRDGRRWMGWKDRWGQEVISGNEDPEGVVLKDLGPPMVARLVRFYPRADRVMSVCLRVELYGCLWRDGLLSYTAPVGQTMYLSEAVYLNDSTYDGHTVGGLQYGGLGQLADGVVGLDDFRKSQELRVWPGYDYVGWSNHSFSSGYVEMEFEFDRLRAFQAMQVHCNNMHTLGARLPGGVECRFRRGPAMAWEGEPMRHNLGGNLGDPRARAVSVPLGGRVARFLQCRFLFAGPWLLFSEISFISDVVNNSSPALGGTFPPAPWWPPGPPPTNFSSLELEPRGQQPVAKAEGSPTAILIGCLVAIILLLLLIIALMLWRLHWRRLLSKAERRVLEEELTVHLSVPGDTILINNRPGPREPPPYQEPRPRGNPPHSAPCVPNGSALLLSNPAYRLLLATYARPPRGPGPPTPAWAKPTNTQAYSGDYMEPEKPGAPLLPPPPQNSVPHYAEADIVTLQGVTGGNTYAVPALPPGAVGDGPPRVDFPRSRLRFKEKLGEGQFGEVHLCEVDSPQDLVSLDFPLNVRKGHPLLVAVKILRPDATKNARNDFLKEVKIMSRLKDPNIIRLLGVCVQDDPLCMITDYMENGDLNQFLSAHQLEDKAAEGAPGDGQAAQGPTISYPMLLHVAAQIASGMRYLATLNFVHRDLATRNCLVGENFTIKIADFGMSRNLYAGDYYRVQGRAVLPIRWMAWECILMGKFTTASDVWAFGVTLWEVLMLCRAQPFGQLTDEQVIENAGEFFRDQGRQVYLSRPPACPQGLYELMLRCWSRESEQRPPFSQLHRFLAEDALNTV
Chain of BRAF (P15056 whole entry): as the sequence (P15056 whole entry V600E) above, with E600V counted along it

As usually defined, the half-life is how long it takes for the measured level to halve. For the compound `CCN1CCN(Cc2ccc(Nc3nc4ccc(Oc5ccnc(NC(C)=O)c5)c5c4n3CCC5)cc2C(F)(F)F)CC1` [Compound I-1, N-(4-((2-((4-((4-ethylpiperazin-1-yl)methyl)-3-(trifluoromethyl)phenyl)amino)-5,6-dihydro-4H-imidazo [4,5,1-ij]quinolin-7-yl)oxy)pyridin-2-yl) acetamide], the remaining binding at 1 µM on BRAF(V600E) came to 2%; on CDK11B, 1.3%; at PDGFRB, 0.1%; on DDR2, 0%; on DDR1, 0%; on CDC2L2, 1%. Moreover, the remaining binding at 1 µM on KIT(L576P) worked out at 0.2%; on BRAF it was 5.5%; at CSF1R, 0.75%; at TAOK2 it was 0.3%. For the same compound, the IC50 on CDK11A turned out to be 30 nM; against JAK2, 820 nM; with CDK11/cycK, 278 nM; in the data set on CDK11/CycL, 290 nM. The half-life in data set [1] was found to be 16.7 min.
On to `CC(=O)Nc1cc(Oc2ccc3nc(Nc4ccc(Cl)c(C(F)(F)F)c4)n4c3c2CCC4)ccn1` [Compound I-3, N-(4-((2-((4-chloro-3-(trifluoromethyl)phenyl)amino)-5,6-dihydro-4H-imidazo[4,5,1-ij]quinolin-7-yl)oxy)pyridin-2-yl)acetamide], for which, at JAK2, the IC50 was above 10000 nM.
Still for that read-out and setting: to `CCN1CCN(Cc2cc(Nc3nc4ccc(Oc5ccnc(NC(C)=O)c5)c5c4n3CCC5)cc(C(F)(F)F)c2)CC1` [Compound I-4, N-(4-((2-((3-((4-ethylpiperazin-1-yl)methyl)-5-(trifluoromethyl)phenyl)amino)-5,6-dihydro-4H-imidazo[4,5,1-ij]quinolin-7-yl)oxy)pyridin-2-yl)acetamide] belongs 1810 nM; to `CC(=O)Nc1cc(Oc2ccc3nc(Nc4ccc(CN5CCN(C)CC5)cc4)n4c3c2CCC4)ccn1` [Compound I-5, N-(4-((2-((4-((4-methylpiperazin-1-yl)methyl)phenyl)amino)-5,6-dihydro-4H-imidazo[4,5,1-ij]quinolin-7-yl)oxy)pyridin-2-yl)acetamide], 5940 nM; to `CC(=O)Nc1cc(Oc2ccc3nc(Nc4ccc(F)cc4F)n4c3c2CCC4)ccn1` [Compound I-6, N-(4-((2-((2,4-difluorophenyl)amino)-5,6-dihydro-4H-imidazo[4,5,1-ij]quinolin-7-yl)oxy)pyridin-2-yl)acetamide], 1820 nM.
At JAK2, `CC(=O)Nc1cc(Oc2ccc3nc(Nc4cc(-n5cnc(C)c5)cc(C(F)(F)F)c4)n4c3c2CCC4)ccn1` [Compound I-7, N-(4-((2-((3-(4-methyl-1H-imidazol-1-yl)-5-(trifluoromethyl)phenyl)amino)-5,6-dihydro-4H-imidazo[4,5,1-ij]quinolin-7-yl)oxy)pyridin-2-yl)acetamide] registered an IC50 of 4560 nM.
Still for that read-out and setting: then `CC(=O)Nc1cc(Oc2ccc3nc(Nc4cc(N5CCN(C)CC5)cc(C(F)(F)F)c4)n4c3c2CCC4)ccn1` [Compound I-8, N-(4-((2-((3-(4-methylpiperazin-1-yl)-5-(trifluoromethyl)phenyl)amino)-5,6-dihydro-4H-imidazo[4,5,1-ij]quinolin-7-yl)oxy)pyridin-2-yl)acetamide], with 9930 nM.
`CC(=O)Nc1cc(Oc2ccc3nc(Nc4ccc(CN5CCC(N(C)C)C5)c(C(F)(F)F)c4)n4c3c2CCC4)ccn1` (stereo not shown) [Compound I-9, N-(4-((2-((4-((3-(dimethylamino)pyrrolidin-1-yl)methyl)-3-(trifluoromethyl)phenyl)amino)-5,6-dihydro-4H-imidazo[4,5,1-ij]quinolin-7-yl)oxy)pyridin-2-yl)acetamide]: the IC50 on JAK2 is 1770 nM.
Take `CC(=O)Nc1cc(Oc2ccc3nc(Nc4cc(C(C)(C)C)nn4-c4ccc(C)cc4)n4c3c2CCC4)ccn1` [Compound I-10, N-(4-((2-((3-(tert-butyl)-1-(p-tolyl)-1H-pyrazol-5-yl)amino)-5,6-dihydro-4H-imidazo[4,5,1-ij]quinolin-7-yl)oxy)pyridin-2-yl)acetamide]: the IC50 at JAK2 is above 10000 nM.
The same measure, in the same setting: to `CC(=O)Nc1cc(Oc2ccc3nc(Nc4ccc(OC5CCN(C)CC5)c(C(F)(F)F)c4)n4c3c2CCC4)ccn1` [Compound I-11, N-(4-((2-((4-((1-methylpiperidin-4-yl)oxy)-3-(trifluoromethyl)phenyl)amino)-5,6-dihydro-4H-imidazo[4,5,1-ij]quinolin-7-yl)oxy)pyridin-2-yl)acetamide] belongs 3680 nM.
As for `N#CC[C@H](C1CCCC1)n1cc(-c2ncnc3[nH]ccc23)cn1` [Ruxolitinib], the IC50 in [2] is above 20000 nM.
